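Test compounds were applied to cells in 96-well plates for 48 hours at 5 doses. Abbreviation: GI50, concentration required for 50% inhibition of growth.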 Calls of active or inactive are those of the source. Cut-off read from the data, not from the text of the source: active = GI50 up to about 1.1 µM and inactive = higher.
Assays:
Test in all cases: growth of human tumour cells (NCI), 48 h
SNB-19 = system: SNB-19
ACHN = system: ACHN
HOP-62 = system: HOP-62
Malme-3M = system: Malme-3M
RXF 393 = system: RXF 393
UACC-62 = system: UACC-62
KM12 = system: KM12
OVCAR-5 = system: OVCAR-5
K562 = system: K562
HCT-116 = system: HCT-116
A549 = system: A549
TK-10 = system: TK-10
OVCAR-8 = system: OVCAR-8
EKVX = system: EKVX
Hs-578T = system: Hs-578T
HL-60 = system: HL-60
T47D = system: T47D
NCI-H460 = system: NCI-H460
NCI-H522 = system: NCI-H522
MDA-N = system: MDA-N

Measured: GI50

COc1cc2c(cc1OC)OC(c1c(OC)ccc(OC)c1O)CC2 (stereo not drawn)
inactive: SNB-19 > 100 µM | ACHN 68.7 µM | HOP-62 > 100 µM | Malme-3M 74 µM | RXF 393 > 100 µM | UACC-62 > 100 µM | KM12 > 100 µM | OVCAR-5 > 100 µM | K562 > 100 µM | HCT-116 > 100 µM | A549 > 100 µM | TK-10 95.3 µM | OVCAR-8 > 100 µM | EKVX > 100 µM | Hs-578T 53.8 µM | HL-60 20.4 µM | T47D 65.8 µM | NCI-H460 > 100 µM

BrC1=CC=C2NC=CC3=CC=NC1C32 (stereo not drawn)
inactive: SNB-19 8.51 µM | ACHN 7.26 µM | HOP-62 25.5 µM | Malme-3M 27.7 µM | NCI-H522 11.5 µM | RXF 393 16 µM | UACC-62 9.53 µM | KM12 24.2 µM | OVCAR-5 19.1 µM | K562 12.2 µM | HCT-116 6.03 µM | TK-10 34.1 µM | OVCAR-8 16.4 µM | EKVX 39.5 µM | HL-60 4.08 µM | NCI-H460 2.75 µM

CC1(C)CC(=O)C/C(=N/c2ccc([N+](=O)[O-])cc2)C1
inactive: ACHN > 100 µM | HOP-62 > 100 µM | Malme-3M > 100 µM | NCI-H522 40.9 µM | RXF 393 47.4 µM | UACC-62 > 100 µM | KM12 > 100 µM | OVCAR-5 > 100 µM | K562 35.6 µM | HCT-116 17.6 µM | A549 > 100 µM | TK-10 > 100 µM | OVCAR-8 > 100 µM | EKVX > 100 µM | HL-60 80.5 µM | NCI-H460 > 100 µM

COc1cc2c(oc(=O)c3c4occc4cc(OC)c23)c2cccc(O)c12
inactive: SNB-19 > 100 µM | ACHN > 100 µM | HOP-62 > 100 µM | Malme-3M > 100 µM | NCI-H522 > 100 µM | RXF 393 > 100 µM | UACC-62 > 100 µM | KM12 > 100 µM | OVCAR-5 > 100 µM | K562 > 100 µM | HCT-116 > 100 µM | A549 > 100 µM | TK-10 > 100 µM | OVCAR-8 > 100 µM | EKVX > 100 µM | HL-60 > 100 µM | NCI-H460 > 100 µM

CC#C[I+]c1ccccc1
inactive: SNB-19 64.6 µM | ACHN 15.7 µM | HOP-62 35.3 µM | Malme-3M 18.9 µM | NCI-H522 3.05 µM | RXF 393 19.1 µM | UACC-62 22.3 µM | KM12 16.5 µM | OVCAR-5 32.7 µM | K562 15.8 µM | HCT-116 19 µM | A549 63.8 µM | TK-10 16.4 µM | OVCAR-8 15.1 µM | EKVX 16.2 µM | HL-60 15 µM | NCI-H460 35.5 µM

CC(C)NC1CCCCC2c3cc(F)ccc3[C@]12O (stereo partly drawn)
inactive: SNB-19 > 100 µM | ACHN > 100 µM | HOP-62 > 100 µM | Malme-3M > 100 µM | NCI-H522 > 100 µM | RXF 393 > 100 µM | UACC-62 > 100 µM | KM12 > 100 µM | OVCAR-5 > 100 µM | K562 > 100 µM | HCT-116 > 100 µM | A549 > 100 µM | TK-10 > 100 µM | OVCAR-8 > 100 µM | EKVX > 100 µM | HL-60 > 100 µM | NCI-H460 > 100 µM

CC1(C)O[C@@H](CCl)C[C@@H](C#N)O1
inactive: SNB-19 > 100 µM | ACHN > 100 µM | HOP-62 > 100 µM | Malme-3M > 100 µM | NCI-H522 > 100 µM | RXF 393 > 100 µM | UACC-62 > 100 µM | KM12 > 100 µM | OVCAR-5 > 100 µM | K562 > 100 µM | HCT-116 > 100 µM | A549 > 100 µM | TK-10 > 100 µM | OVCAR-8 > 100 µM | EKVX > 100 µM | HL-60 > 100 µM | NCI-H460 > 100 µM

CC12CC3c4ccccc4CN1C3(c1ccccc1)OC2=O (stereo not drawn)
inactive: SNB-19 > 100 µM | ACHN > 100 µM | HOP-62 > 100 µM | Malme-3M > 100 µM | NCI-H522 > 100 µM | RXF 393 > 100 µM | UACC-62 > 100 µM | KM12 > 100 µM | OVCAR-5 > 100 µM | HCT-116 > 100 µM | A549 > 100 µM | TK-10 > 100 µM | OVCAR-8 > 100 µM | EKVX > 100 µM | Hs-578T > 100 µM | HL-60 > 100 µM | T47D > 100 µM

CCOC(=O)CCC(C(=O)OCC)n1nnc2ccc(Nc3c(C)[n+]([O-])c4cc(Cl)ccc4[n+]3[O-])cc21 (stereo not drawn)
inactive: SNB-19 > 100 µM | ACHN 34.7 µM | HOP-62 31.9 µM | Malme-3M 17.3 µM | NCI-H522 19.5 µM | RXF 393 22.4 µM | UACC-62 17.4 µM | KM12 22.2 µM | OVCAR-5 46.5 µM | K562 22.6 µM | HCT-116 25.1 µM | A549 61.5 µM | TK-10 71.8 µM | OVCAR-8 21.5 µM | EKVX 27.7 µM | Hs-578T 32.4 µM | HL-60 29.9 µM | T47D 19.5 µM | NCI-H460 35.3 µM

CCSC1=N/C(=C\c2ccco2)C(Nc2ccc(C)cc2)=N1
inactive: SNB-19 > 100 µM | ACHN > 100 µM | HOP-62 > 100 µM | Malme-3M 52 µM | NCI-H522 > 100 µM | UACC-62 > 100 µM | KM12 > 100 µM | OVCAR-5 > 100 µM | K562 > 100 µM | HCT-116 > 100 µM | A549 > 100 µM | TK-10 > 100 µM | OVCAR-8 > 100 µM | EKVX > 100 µM | Hs-578T > 100 µM | MDA-N > 100 µM

COC(=O)C1CC(C(=O)OC)c2nc3cc([N+](=O)[O-])ccc3nc21 (stereo not drawn)
inactive: SNB-19 > 67.9 µM | ACHN 45.9 µM | HOP-62 > 52.8 µM | Malme-3M > 100 µM | NCI-H522 7.93 µM | RXF 393 31.6 µM | UACC-62 22.6 µM | KM12 23.1 µM | OVCAR-5 > 100 µM | K562 14.7 µM | HCT-116 33.7 µM | A549 43.1 µM | TK-10 > 100 µM | OVCAR-8 > 90.4 µM | EKVX > 81.3 µM | HL-60 7.23 µM | NCI-H460 65.6 µM

CC(=O)Oc1cc2c(=O)oc3c(OC(C)=O)c(OC(C)=O)c(OC(C)=O)c4c(=O)oc(c1OC(C)=O)c2c34
inactive: SNB-19 73.8 µM | ACHN 48.3 µM | HOP-62 > 100 µM | Malme-3M 29.4 µM | NCI-H522 37.4 µM | RXF 393 6.18 µM | UACC-62 33.2 µM | KM12 > 100 µM | OVCAR-5 94.6 µM | K562 53.5 µM | HCT-116 24 µM | A549 > 100 µM | TK-10 > 100 µM | OVCAR-8 56.6 µM | EKVX 74 µM | HL-60 56 µM | NCI-H460 34.7 µM

CCNc1ccc2c(c1)Cc1ccccc1-2
inactive: SNB-19 48.1 µM | ACHN 77.4 µM | HOP-62 > 100 µM | Malme-3M 67.9 µM | NCI-H522 32.7 µM | RXF 393 > 100 µM | UACC-62 40.7 µM | KM12 26.1 µM | OVCAR-5 > 100 µM | K562 27.6 µM | HCT-116 > 100 µM | A549 73.5 µM | TK-10 33.1 µM | OVCAR-8 51.5 µM | EKVX 32.4 µM | Hs-578T 65.2 µM | HL-60 37.3 µM | T47D > 100 µM | NCI-H460 18 µM

CC1=NN(C(=O)CC(=O)Nc2ccccc2)C(=O)C1/N=N/c1ccc(S(N)(=O)=O)cc1 (stereo not drawn)
inactive: SNB-19 71.6 µM | ACHN > 100 µM | HOP-62 88.5 µM | Malme-3M > 100 µM | NCI-H522 39 µM | RXF 393 70.8 µM | UACC-62 32.8 µM | KM12 > 100 µM | OVCAR-5 > 100 µM | K562 35.2 µM | HCT-116 48 µM | A549 > 100 µM | TK-10 > 100 µM | OVCAR-8 61.5 µM | EKVX > 100 µM | HL-60 18 µM | NCI-H460 92.5 µM

O=C(O)CSc1nnc(Cc2ccccc2)[nH]1
inactive: SNB-19 > 100 µM | ACHN > 100 µM | HOP-62 > 100 µM | Malme-3M > 100 µM | NCI-H522 > 100 µM | RXF 393 > 100 µM | UACC-62 > 100 µM | KM12 > 100 µM | OVCAR-5 > 100 µM | K562 > 100 µM | HCT-116 > 100 µM | A549 > 100 µM | TK-10 > 100 µM | OVCAR-8 > 100 µM | EKVX > 100 µM | HL-60 > 100 µM | NCI-H460 > 100 µM

CC1(C)C(=NN=C(N)N)C(C)(C)C1=NN=C(N)N
inactive: SNB-19 > 100 µM | ACHN > 100 µM | HOP-62 > 10 µM | Malme-3M > 100 µM | NCI-H522 > 100 µM | RXF 393 > 100 µM | UACC-62 > 100 µM | KM12 > 100 µM | OVCAR-5 > 100 µM | K562 > 100 µM | HCT-116 > 100 µM | A549 > 100 µM | TK-10 > 100 µM | OVCAR-8 > 100 µM | HL-60 > 100 µM | NCI-H460 > 100 µM
